According to patent US10800741B2 (ANCUREALL PHARMACEUTICAL (SHANGHAI) CO., LTD., priority 2017, dated 2020):
Read-outs that look alike come from different tables or passages of the source.

How the values were obtained:
Test in all cases: KINOMEscan in vitro binding to 468 labeled protein kinases
[1] = biological target: T1, protein kinases (Homo sapiens, UniProt P00533, G719S); settings: EGFR(G719S)
T1 construct: purchased Discovery X company (USA), KINOMEscan screening platform
Experimental: (§1) Test Example 6 Determination of Binding Affinity of the Present Compounds on Protein Kinases In Vitro
(§2) KINOMEscan screening platform of Discovery X company (USA) was used to identify the binding targets of the present compounds to protein kinases. Compound 66 of the present invention was dissolved in DMSO (Sigma Aldrich) at concentrations of 1000 nM, 10 nM and 1 nM, and then was subjected to in vitro binding reaction with 468 labeled protein kinases. Two samples were taken in parallel for each assay sample.
(§3) The lower the percentage of the test compound to the solvent control, the stronger the binding affinity of the test compound to the protein kinase in vitro.

[2] = biological target: T2, protein kinases (Homo sapiens, UniProt P10721, L576P); settings: KIT(L576P), read-out: Test compound/solvent control (%)
T2 construct: purchased Discovery X company (USA), KINOMEscan screening platform
T2 sequence (P10721 26-976 L576P): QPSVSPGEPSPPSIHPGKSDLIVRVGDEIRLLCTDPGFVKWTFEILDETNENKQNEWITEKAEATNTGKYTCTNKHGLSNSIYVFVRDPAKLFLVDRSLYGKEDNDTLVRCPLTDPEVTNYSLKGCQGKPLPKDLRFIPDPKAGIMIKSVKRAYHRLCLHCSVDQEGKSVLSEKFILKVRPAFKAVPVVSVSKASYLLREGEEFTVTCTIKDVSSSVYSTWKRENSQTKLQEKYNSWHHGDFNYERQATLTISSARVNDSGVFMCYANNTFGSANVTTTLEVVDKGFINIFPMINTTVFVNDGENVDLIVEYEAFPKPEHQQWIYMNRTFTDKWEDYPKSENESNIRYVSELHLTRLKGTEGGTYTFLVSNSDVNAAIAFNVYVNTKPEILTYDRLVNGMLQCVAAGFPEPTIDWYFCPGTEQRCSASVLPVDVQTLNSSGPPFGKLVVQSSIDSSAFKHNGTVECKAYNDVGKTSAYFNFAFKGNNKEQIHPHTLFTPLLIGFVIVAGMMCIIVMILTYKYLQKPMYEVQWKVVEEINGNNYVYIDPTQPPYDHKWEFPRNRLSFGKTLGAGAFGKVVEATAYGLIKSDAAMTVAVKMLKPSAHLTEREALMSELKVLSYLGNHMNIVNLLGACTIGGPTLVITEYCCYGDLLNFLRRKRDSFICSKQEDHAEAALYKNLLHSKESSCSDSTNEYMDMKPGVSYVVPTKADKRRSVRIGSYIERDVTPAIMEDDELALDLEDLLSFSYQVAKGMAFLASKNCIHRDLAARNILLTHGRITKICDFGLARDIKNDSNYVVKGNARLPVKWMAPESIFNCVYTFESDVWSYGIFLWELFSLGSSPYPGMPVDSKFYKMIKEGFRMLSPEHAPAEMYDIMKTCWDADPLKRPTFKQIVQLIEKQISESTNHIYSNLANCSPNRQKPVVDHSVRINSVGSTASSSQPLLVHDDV
Experimental: as §1, §2, §3

[3] = biological target: T3, protein kinases (Homo sapiens, UniProt Q16620); settings: TRKB (NTRK2), read-out: Test compound/solvent control (%)
T3 construct: purchased Discovery X company (USA), KINOMEscan screening platform
Experimental: as §1, §2, §3

[4] = biological target: T4, protein kinases (Homo sapiens, UniProt P00519, M351T); settings: ABL1(M351T)-phosphorylated, read-out: Test compound/solvent control (%)
T4 construct: purchased Discovery X company (USA), KINOMEscan screening platform
Experimental: as §1, §2, §3

[5] = biological target: T5, protein kinases (Homo sapiens, UniProt P22455); settings: FGFR4, read-out: Test compound/solvent control (%)
T5 construct: purchased Discovery X company (USA), KINOMEscan screening platform
T5 sequence (P22455 22-802): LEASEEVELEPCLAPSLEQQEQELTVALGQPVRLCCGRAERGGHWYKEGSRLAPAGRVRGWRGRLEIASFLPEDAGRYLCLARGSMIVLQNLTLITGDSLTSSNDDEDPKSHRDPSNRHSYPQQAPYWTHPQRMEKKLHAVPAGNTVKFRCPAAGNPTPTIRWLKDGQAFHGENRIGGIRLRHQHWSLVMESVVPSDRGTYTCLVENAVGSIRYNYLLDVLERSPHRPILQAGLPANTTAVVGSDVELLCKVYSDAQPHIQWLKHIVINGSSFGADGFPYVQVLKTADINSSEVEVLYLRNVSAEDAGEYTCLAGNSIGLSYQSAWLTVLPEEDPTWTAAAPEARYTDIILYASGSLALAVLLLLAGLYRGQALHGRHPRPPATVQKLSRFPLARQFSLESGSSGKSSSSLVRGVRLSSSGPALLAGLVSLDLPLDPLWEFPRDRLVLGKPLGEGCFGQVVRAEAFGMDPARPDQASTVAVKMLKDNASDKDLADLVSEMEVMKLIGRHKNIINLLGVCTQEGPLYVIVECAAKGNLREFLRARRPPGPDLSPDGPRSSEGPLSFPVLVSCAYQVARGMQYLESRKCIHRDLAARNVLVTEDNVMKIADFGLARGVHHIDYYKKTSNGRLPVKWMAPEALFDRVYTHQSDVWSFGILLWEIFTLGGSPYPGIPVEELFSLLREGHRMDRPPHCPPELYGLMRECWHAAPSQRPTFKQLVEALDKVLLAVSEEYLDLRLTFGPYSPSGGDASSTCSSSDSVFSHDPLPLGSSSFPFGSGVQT
Experimental: as §1, §2, §3

[6] = biological target: T6, protein kinases (Homo sapiens, UniProt P00519, F317L); settings: read-out: Test compound/solvent control (%); for remaining binding at 0.001 µM: 1 nM; for remaining binding at 0.01 µM: 10 nM; for remaining binding at 1 µM: 1000 nM
T6 construct: purchased Discovery X company (USA), KINOMEscan screening platform
Experimental: as §1, §2, §3

[7] = biological target: T7, protein kinases (Homo sapiens, UniProt Q12866); settings: MERTK, read-out: Test compound/solvent control (%)
T7 construct: purchased Discovery X company (USA), KINOMEscan screening platform
T7 sequence (Q12866 21-999): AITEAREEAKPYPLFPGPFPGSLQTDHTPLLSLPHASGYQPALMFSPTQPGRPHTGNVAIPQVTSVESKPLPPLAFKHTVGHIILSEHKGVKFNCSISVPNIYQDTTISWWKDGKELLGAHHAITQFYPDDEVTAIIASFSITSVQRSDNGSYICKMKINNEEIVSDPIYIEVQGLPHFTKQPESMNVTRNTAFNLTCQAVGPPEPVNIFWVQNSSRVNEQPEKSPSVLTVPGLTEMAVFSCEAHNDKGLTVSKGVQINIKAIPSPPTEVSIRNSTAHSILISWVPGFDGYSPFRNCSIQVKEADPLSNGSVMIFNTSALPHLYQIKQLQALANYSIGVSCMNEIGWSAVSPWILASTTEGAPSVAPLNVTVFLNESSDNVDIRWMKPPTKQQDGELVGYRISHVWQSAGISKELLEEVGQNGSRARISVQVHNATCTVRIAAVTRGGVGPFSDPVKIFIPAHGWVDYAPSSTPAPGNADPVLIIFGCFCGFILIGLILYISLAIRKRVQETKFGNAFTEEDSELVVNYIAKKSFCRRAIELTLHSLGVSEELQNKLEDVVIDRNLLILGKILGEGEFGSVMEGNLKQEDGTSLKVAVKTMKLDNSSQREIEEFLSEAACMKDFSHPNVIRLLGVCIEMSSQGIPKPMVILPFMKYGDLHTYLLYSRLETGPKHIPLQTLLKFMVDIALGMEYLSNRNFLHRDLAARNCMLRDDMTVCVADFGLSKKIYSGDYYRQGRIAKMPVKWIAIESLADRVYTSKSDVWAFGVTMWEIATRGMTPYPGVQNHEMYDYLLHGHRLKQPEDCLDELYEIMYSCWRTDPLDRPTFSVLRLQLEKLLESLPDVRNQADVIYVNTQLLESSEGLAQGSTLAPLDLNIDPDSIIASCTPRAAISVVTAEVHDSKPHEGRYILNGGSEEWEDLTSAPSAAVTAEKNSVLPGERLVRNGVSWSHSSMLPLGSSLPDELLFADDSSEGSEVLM
Experimental: as §1, §2, §3

[8] = biological target: T8, protein kinases (Homo sapiens, UniProt Q16288); settings: TRKC (NTRK3), read-out: Test compound/solvent control (%)
T8 construct: purchased Discovery X company (USA), KINOMEscan screening platform
T8 sequence (Q16288 32-839): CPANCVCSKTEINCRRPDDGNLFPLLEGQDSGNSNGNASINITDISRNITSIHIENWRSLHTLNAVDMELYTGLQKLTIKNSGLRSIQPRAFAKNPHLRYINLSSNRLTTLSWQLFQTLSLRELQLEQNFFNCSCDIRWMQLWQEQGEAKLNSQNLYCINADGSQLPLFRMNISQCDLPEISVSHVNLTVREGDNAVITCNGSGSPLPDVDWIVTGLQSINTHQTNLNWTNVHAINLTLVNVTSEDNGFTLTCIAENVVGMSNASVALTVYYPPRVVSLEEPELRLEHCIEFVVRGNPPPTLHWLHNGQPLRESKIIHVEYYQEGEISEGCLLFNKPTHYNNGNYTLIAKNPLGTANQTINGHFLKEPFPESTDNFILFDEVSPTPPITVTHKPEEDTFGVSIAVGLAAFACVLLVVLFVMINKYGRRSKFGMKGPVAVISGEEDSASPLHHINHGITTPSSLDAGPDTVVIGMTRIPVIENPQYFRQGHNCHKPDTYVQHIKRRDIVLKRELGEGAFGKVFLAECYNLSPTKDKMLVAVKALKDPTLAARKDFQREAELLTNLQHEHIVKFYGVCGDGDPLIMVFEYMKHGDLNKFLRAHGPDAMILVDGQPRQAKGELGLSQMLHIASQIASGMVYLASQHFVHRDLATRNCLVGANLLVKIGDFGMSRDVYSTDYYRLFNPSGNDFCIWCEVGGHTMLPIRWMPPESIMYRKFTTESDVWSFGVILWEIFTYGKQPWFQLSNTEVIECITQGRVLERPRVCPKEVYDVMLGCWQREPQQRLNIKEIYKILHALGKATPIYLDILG
Experimental: as §1, §2, §3

[9] = biological target: T9, protein kinases (Homo sapiens, UniProt P00533, L858R); settings: EGFR(L858R)
T9 construct: purchased Discovery X company (USA), KINOMEscan screening platform
T9 sequence (P00533 25-1210 L858R): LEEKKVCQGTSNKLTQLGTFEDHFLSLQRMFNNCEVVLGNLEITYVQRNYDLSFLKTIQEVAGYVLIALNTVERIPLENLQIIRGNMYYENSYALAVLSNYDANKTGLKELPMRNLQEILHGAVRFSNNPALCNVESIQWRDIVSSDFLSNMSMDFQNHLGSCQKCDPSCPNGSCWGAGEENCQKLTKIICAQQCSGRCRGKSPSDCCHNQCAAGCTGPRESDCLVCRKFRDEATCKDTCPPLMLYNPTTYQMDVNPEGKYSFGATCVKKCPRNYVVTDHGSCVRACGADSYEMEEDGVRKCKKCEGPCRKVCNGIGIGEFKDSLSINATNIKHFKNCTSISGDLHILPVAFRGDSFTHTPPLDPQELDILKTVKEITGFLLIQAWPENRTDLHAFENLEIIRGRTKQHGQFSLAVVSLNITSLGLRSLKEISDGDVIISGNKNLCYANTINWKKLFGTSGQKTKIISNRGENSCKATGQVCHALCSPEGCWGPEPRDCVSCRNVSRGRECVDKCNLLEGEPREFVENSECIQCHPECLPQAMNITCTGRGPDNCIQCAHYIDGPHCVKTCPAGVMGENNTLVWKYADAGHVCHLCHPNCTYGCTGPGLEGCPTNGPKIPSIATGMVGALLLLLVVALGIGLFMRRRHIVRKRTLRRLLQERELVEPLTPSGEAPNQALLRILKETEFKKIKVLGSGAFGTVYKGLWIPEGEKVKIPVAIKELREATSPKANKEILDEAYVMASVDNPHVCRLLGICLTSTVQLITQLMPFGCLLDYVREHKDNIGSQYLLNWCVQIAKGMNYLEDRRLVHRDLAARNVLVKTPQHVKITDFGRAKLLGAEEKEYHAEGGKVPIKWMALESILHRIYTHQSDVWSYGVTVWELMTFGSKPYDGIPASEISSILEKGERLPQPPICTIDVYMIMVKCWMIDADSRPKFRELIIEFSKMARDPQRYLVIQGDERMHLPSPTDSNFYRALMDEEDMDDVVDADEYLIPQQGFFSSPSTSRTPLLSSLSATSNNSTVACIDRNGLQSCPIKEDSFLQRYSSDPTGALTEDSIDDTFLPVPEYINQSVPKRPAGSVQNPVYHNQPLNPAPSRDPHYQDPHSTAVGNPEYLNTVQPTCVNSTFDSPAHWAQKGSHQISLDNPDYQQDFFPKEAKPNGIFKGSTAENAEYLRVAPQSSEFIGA
Experimental: as §1, §2, §3

T1 sequence (P00533 25-1210 G719S): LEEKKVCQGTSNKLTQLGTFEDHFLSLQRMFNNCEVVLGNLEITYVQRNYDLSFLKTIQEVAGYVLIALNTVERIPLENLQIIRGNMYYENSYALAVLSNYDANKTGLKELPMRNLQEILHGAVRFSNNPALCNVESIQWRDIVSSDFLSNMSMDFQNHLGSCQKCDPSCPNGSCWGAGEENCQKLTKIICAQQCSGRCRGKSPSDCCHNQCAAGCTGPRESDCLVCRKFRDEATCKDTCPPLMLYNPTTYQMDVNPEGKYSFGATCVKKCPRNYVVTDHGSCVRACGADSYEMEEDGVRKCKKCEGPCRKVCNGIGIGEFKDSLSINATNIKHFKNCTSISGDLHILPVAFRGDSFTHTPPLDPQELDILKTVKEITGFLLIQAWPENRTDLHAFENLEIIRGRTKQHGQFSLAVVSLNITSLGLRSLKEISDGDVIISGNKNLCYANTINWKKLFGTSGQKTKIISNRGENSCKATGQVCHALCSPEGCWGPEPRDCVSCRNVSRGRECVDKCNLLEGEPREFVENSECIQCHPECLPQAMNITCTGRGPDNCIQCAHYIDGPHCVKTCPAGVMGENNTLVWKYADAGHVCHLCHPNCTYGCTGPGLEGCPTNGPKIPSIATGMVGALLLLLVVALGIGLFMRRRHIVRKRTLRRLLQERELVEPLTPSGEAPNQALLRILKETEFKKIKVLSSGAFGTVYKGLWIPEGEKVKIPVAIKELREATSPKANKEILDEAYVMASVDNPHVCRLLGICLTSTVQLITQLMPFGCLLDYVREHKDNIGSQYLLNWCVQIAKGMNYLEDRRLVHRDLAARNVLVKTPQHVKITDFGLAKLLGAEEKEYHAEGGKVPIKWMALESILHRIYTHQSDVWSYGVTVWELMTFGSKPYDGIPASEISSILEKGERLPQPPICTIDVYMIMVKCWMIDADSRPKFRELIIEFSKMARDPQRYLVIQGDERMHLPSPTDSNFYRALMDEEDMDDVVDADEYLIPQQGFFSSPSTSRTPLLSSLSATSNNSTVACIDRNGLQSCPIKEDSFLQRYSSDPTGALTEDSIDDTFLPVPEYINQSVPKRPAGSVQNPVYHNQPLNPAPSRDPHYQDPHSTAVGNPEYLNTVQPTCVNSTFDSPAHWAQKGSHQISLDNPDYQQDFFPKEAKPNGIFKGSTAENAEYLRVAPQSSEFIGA

Test compound/solvent control (%) ([1]; 1 nM): 77%
Test compound/solvent control (%) ([1]; 10 nM): 18%
Test compound/solvent control (%) ([1]; 1000 nM): 0%
remaining binding at 0.001 µM ([2]; 1 nM): 95%
remaining binding at 0.01 µM ([2]; 10 nM): 32%
remaining binding at 1 µM ([2]; 1000 nM): 0%
remaining binding at 0.001 µM ([3]; 1 nM): 65%
remaining binding at 0.01 µM ([3]; 10 nM): 12%
remaining binding at 1 µM ([3]; 1000 nM): 0.35%
remaining binding at 0.001 µM ([4]; 1 nM): 100%
remaining binding at 0.01 µM ([4]; 10 nM): 22%
remaining binding at 1 µM ([4]; 1000 nM): 0.65%
remaining binding at 0.001 µM ([5]; 1 nM): 93%
remaining binding at 0.01 µM ([5]; 10 nM): 74%
remaining binding at 1 µM ([5]; 1000 nM): 0%
remaining binding at 0.001 µM ([6]; ABL1(F317L)-phosphorylated): 55%
remaining binding at 0.01 µM ([6]; ABL1(F317L)-phosphorylated): 3.7%
remaining binding at 1 µM ([6]; ABL1(F317L)-phosphorylated): 1.1%
remaining binding at 0.001 µM ([6]; ABL1(F317L)-unphosphorylated): 49%
remaining binding at 0.01 µM ([6]; ABL1(F317L)-unphosphorylated): 6.8%
remaining binding at 1 µM ([6]; ABL1(F317L)-unphosphorylated): 0.25%
remaining binding at 0.001 µM ([7]; 1 nM): 57%
remaining binding at 0.01 µM ([7]; 10 nM): 4.1%
remaining binding at 1 µM ([7]; 1000 nM): 0.65%
remaining binding at 0.001 µM ([8]; 1 nM): 84%
remaining binding at 0.01 µM ([8]; 10 nM): 28%
remaining binding at 1 µM ([8]; 1000 nM): 0.2%
Test compound/solvent control (%) ([9]; 1 nM): 87%
Test compound/solvent control (%) ([9]; 10 nM): 28%
Test compound/solvent control (%) ([9]; 1000 nM): 0%
Structure (SMILES): COCCOc1cc2nccc(Oc3ccc(NC(=O)Nc4cc(C(C)(C)C)n[nH]4)c(Cl)c3)c2cc1NC(C)=O [Compound 66, N-[4-{4-[3-(5-tert-butyl-2H-pyrazol-3-yl)-ureido]-3-chloro-phenoxy}-7-(2-methoxy-ethoxy)-quinolin-6-yl]-acetamide]
